# Key:
# [1] = Cytotoxicity (CC50) in MT4 cells, mock-infected; assay type: cell-based; settings: human, mock-infected
# Outline: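 Mock-infected MT4 cells (2000/well) exposed to compounds for 5 days at 37 °C; cell viability then read as chemiluminescence from CellTiter-Glo after brief room-temperature lysis.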
# HIV-1 E138K/Q148K = assay type: cell-based; settings: MT2 cells; mean EC50 mutant / mean EC50 wt
# Protocol: (§1) For the antiviral assay utilizing MT-2 cells, 50 μL of 2× test concentration of 3-fold serially diluted compound in culture medium with 10% FBS was added to each well of a 96-well plate (9 concentrations) in triplicate. MT-2 cells were infected with wild-type or mutant variants of HIV-1 for 3 hours using a volume of viral inoculum determined to produce 90% cell killing. Fifty microliters of infected cell suspension in culture medium with 10% FBS (˜1.5×10^4 cells) was then added to each well containing 50 μL of serially diluted compound. The plates with HIV-infected cultures were then incubated at 37° C. for 5 days in the presence of the tested compounds. After 5 days of incubation, 100 μL of CellTiter-Glo™ Reagent (catalog # G7571, Promega Biosciences, Inc., Madison, Wis.) was added to each well. Cell lysis was carried out by incubating at room temperature for 10 min followed by a chemiluminescence read-out.
# (§2) The chemiluminescence readout from the 10-point antiviral dose response was analyzed directly by curve fitting with equation (I) to determine the EC50.
# (§3) where y=Cell Survival, M=maximum cell survival enabled by drug protection, H=baseline cell survival without drug protection, n=Hill coefficient of the antiviral dose response, m=Hill coefficient of the cytotoxicity dose response, and [I]=inhibitor concentration.
# (§4) EC50 values (mean±standard deviation) were calculated from at least three independent experiments performed in triplicate. The fold-change in antiviral activity of tested compounds was calculated as a ratio of the mean EC50 for each mutant virus divided by the mean EC50 of the control WT virus.
# HIV-1 E92Q/N155H = assay type: cell-based; settings: MT2 cells; mean EC50 mutant / mean EC50 wt
# Protocol: as §1, §2, §3, §4
# HIV-1 G140S/Q148R = assay type: cell-based; settings: MT2 cells; mean EC50 mutant / mean EC50 wt
# Protocol: as §1, §2, §3, §4
# HIV-1 N155H/Q148R = assay type: cell-based; settings: MT2 cells; mean EC50 mutant / mean EC50 wt
# Protocol: as §1, §2, §3, §4
# wild-type HIV-1 = experiment: Antiviral assay in MT-2 cells, wild-type HIV-1; assay type: cell-based; settings: Human immunodeficiency virus 1, 120 h; MT2 cells, wild-type HIV-1, 5 days; read-out: wt
# Protocol: as §1, §2, §3, §4
# [2] = Plasma protein binding (equilibrium dialysis); assay type: in vitro ADME; settings: human, plasma (sodium EDTA) dialysed against buffer; 2 μM in plasma vs. buffer, 24 hours at 37° C.; read-out: % Free HP/Buffer
# Protocol: Plasma protein binding was determined using a HTD96b equilibrium dialyzer with a plate base, stainless steel pressure plate and Teflon bock. 9 Teflon bars, labeled sequentially from A through I, were assembled with two stainless steel connecting rods. Membranes were placed between two Teflon bars, with the membrane placed approximately 2 mm below the top edge of the bar and the lower membrane edge overlapped the bottom of all wells. The membrane was soaked for about 20 minutes in water, about 20 minutes in ethanol (30/70 v/v) and rinsed with water three times to remove the ethanol. It was soaked in PBS for at least 30 minutes. Plasma in sodium EDTA (Bioreclamation or equivalent) was used. The Plasma (not pH-adjusted) was stored at −80° C. and thawed at room temperature before use. The stock solution of the compounds tested was at 200 μM in DMSO. The quench solution used was 50 nM of an internal standard in 100% ACN. To prepare a 2 μM solution of the compound tested in plasma, 5 μL of a 200 μM stock solution was added to 495 μL of blank plasma. 100 μL plasma was added with 2 μM of test compound into one side of the well. 100 μL of buffer (for plasma vs. buffer) was added into another side of the well. The 96-well plate was covered using an adhesive sealing film and incubated for 24 hours at 37° C. under slow rotation. This procedure was replicated for each compound. 50 μL of plasma sample was put into a 96 well plate, 50 μL of buffer was added. 50 μL of buffer was put into a 96 well plate. 50 μL of plasma was added. 300 μL of quench solution was added and the plate sealed and shaken for 15 minutes. The material was centrifuged for 30 minutes at 3000 RPM and ˜250 μL was transferred into a short plate. The samples were analyzed by LC/MS. The resulting data is shown in the last row of Table 3 as “% Free” which corresponds to the percentage of compound not protein bound.
Structure (SMILES),CC50 at 5 days [1] [µM],Resistance fold shift E138K/Q148K vs. wild type (HIV-1 E138K/Q148K) [fold shift],Resistance fold shift E92Q/N155H vs. wild type (HIV-1 E92Q/N155H) [fold shift],Resistance fold shift G140S/Q148R vs. wild type (HIV-1 G140S/Q148R) [fold shift],Resistance fold shift N155H/Q148R vs. wild type (HIV-1 N155H/Q148R) [fold shift],EC50 (wild-type HIV-1) [µM],"fraction unbound at 24 h, 2 µM [2]"
CCN1C(=O)c2c(O)c(=O)c(C(=O)NCc3ccc(F)c(Cl)c3F)cn2[C@H]2CCOC[C@H]21 [Compound 39],12.8,1.5,2.3,1.8,2.8,0.0009,0.0067
CCN1C(=O)c2c(O)c(=O)c(C(=O)NCc3ccc(F)c(Cl)c3F)cn2[C@H]2CCO[C@H]21 [Compound 25b],26.7,2.3,2.2,1.9,2.2,0.0014,< 0.001
